Experimental data as given in patent publication US12209096B2, “Compounds and compositions for inducing chondrogenesis” (NOVARTIS AG, priority 2017, dated 2025).

System: NHACs
Assay: calcium flux assay
Format: cell-based, human
Details: Homo sapiens; for Emax: read-out: (A) % Efficacy
Summary of the method: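 FLIPR fluorescence (ex 470–495 nm, em 515–575 nm) was read before and after compound dispense at the indicated dose. Chondrocytes (NHACs), 2000 cells/well, had been dye-loaded 24 h after plating with Calcium 5 in HBSS/HEPES plus 5 mM probenecid, 1 h, room temperature.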

Structure (SMILES) | EC50 | Emax
COc1ccc(NC(=O)[C@@H]2[C@@H]3O[C@@H]([C@H]4C[C@H]43)[C@@H]2c2ccncc2)cn1 [Example 33, (1S,2S,4R,5R,6S,7S)—N-(6-methoxypyridin-3-yl)-7-(pyridin-4-yl)-8-oxatricyclo[3.2.1.0^2,4]octane-6-carboxamide] | 4.6 µM | 49%
O=C(Nc1ccc(Cl)c(Cl)c1)[C@@H]1[C@@H](c2cnc(F)nc2)[C@H]2O[C@@H]1C[C@@H]2O [Example 151, (1R,2R,3S,4R,5S)—N-(3,4-dichlorophenyl)-3-(2-fluoropyrimidin-5-yl)-5-hydroxy-7-oxabicyclo[2.2.1]heptane-2-carboxamide] | > 50 µM | 0%
O=C(Nc1ccc(Cl)c(Cl)c1)[C@@H]1[C@@H](c2ccnc(F)c2)[C@H]2O[C@@H]1C[C@@H]2O (racemic) [Example 142, rac-(1R,2R,3S,4R,5S)—N-(3,4-dichlorophenyl)-3-(2-fluoropyridin-4-yl)-5-hydroxy-7-oxabicyclo[2.2.1]heptane-2-carboxamide] | 28 µM | 142%
O=C(Nc1ccc(Cl)c(Cl)c1)[C@@H]1[C@@H]2O[C@@H]([C@H]3C[C@H]32)[C@@H]1c1ccnc(F)c1F (single isomer, unassigned) [Example 29] | > 50 µM | 6%
O=C(Nc1cccc(C(F)(F)F)c1)[C@@H]1[C@@H]2O[C@@H]([C@H]3C[C@H]32)[C@@H]1c1ccncc1 [Example 38, (1S,2S,4R,5R,6S,7S)-7-(pyridin-4-yl)-N-(3-(trifluoromethyl)phenyl)-8-oxatricyclo[3.2.1.0^2,4]octane-6-carboxamide] | 9.9 µM | 36%
Cc1cc([C@H]2[C@H]3O[C@H](C[C@H]3F)[C@@H]2C(=O)Nc2cccc(C(F)(F)F)c2)ccn1 [Example 96, (1R,2R,3S,4R,5R)-5-fluoro-3-(2-methylpyridin-4-yl)-N-(3-(trifluoromethyl)phenyl)-7-oxabicyclo[2.2.1]heptane-2-carboxamide] | 14 µM | 281%
O=C(Nc1ccc(Cl)c(Cl)c1)[C@H]1[C@@H]2O[C@@H]([C@H]3C[C@H]32)[C@@H]1c1ccnc(F)c1F (single isomer, unassigned) [Example 122a] | 25 µM | 160%
Cc1cc([C@H]2[C@H]3O[C@H](C[C@@H]3O)[C@H]2C(=O)Nc2ccc(Cl)c(Cl)c2)ccn1 (racemic) [Example 53, rac-(1R,2S,3S,4R,5S)—N-(3,4-dichlorophenyl)-5-hydroxy-3-(2-methylpyridin-4-yl)-7-oxabicyclo[2.2.1]heptane-2-carboxamide] | > 50 µM | 43%
Nc1ncc([C@H]2[C@H]3O[C@H](C[C@@H]3O)[C@H]2C(=O)Nc2ccc(Cl)c(Cl)c2)cn1 [Example 60, (1R,2S,3S,4R,5S)-3-(2-aminopyrimidin-5-yl)-N-(3,4-dichlorophenyl)-5-hydroxy-7-oxabicyclo[2.2.1]heptane-2-carboxamide] | > 50 µM | 2%
Cc1cc([C@@H]2[C@@H]3O[C@@H]([C@H]4C[C@H]43)[C@@H]2C(=O)Nc2cnc(Cl)c(Cl)c2)ccn1 (single isomer, unassigned) [Example 46] | > 50 µM | 0%
Cc1cc([C@H]2[C@H]3O[C@H](C[C@@H]3O)[C@@H]2C(=O)Nc2cnc(C)c(Cl)c2)ccn1 [Example 81, (1R,2R,3S,4R,5S)—N-(5-chloro-6-methylpyridin-3-yl)-5-hydroxy-3-(2-methylpyridin-4-yl)-7-oxabicyclo[2.2.1]heptane-2-carboxamide] | 2.7 µM | 34%
O=C(Nc1ccc(Cl)c(Cl)c1)[C@H]1[C@@H](c2cc(F)ncc2F)[C@H]2O[C@@H]1C[C@@H]2O [Example 58, (1R,2S,3S,4R,5S)—N-(3,4-dichlorophenyl)-3-(2,5-difluoropyridin-4-yl)-5-hydroxy-7-oxabicyclo[2.2.1]heptane-2-carboxamide] | > 50 µM | 0%
O=C(Nc1ccc(Cl)c(Cl)c1)[C@H]1[C@@H](c2cnc(F)nc2)[C@H]2O[C@@H]1C[C@@H]2O [Example 61, (1R,2S,3S,4R,5S)—N-(3,4-dichlorophenyl)-3-(2-fluoropyrimidin-5-yl)-5-hydroxy-7-oxabicyclo[2.2.1]heptane-2-carboxamide] | > 50 µM | 24%
O=C(Nc1ccc(Cl)c(Cl)c1)[C@@H]1[C@H]2O[C@H]([C@@H]3C[C@@H]32)[C@H]1c1ccnc(F)c1F (single isomer, unassigned) [Example 122b] | 17 µM | 217%
O=C(Nc1ccc(Cl)c(Cl)c1)[C@H]1[C@@H](c2ccnc(F)c2)[C@H]2O[C@@H]1C[C@@H]2F [Example 22, (1R,2S,3S,4R,5S)-N-(3,4-dichlorophenyl)-5-fluoro-3-(2-fluoropyridin-4-yl)-7-oxabicyclo[2.2.1]heptane-2-carboxamide] | 4.2 µM | 128%
O=C(Nc1ccc(Cl)c(Cl)c1)[C@H]1[C@@H]2O[C@@H]([C@@H](O)[C@H]2O)[C@@H]1c1ccncc1 [Example 160, (1S,2R,3S,4R,5S,6R)—N-(3,4-dichlorophenyl)-5,6-dihydroxy-3-(pyridin-4-yl)-7-oxabicyclo[2.2.1]heptane-2-carboxamide] | > 50 µM | 32%
O=C(Nc1ccc(Cl)c(Cl)c1)[C@@H]1[C@@H](c2ccnc(F)c2)[C@H]2O[C@@H]1C[C@H]2NCCO [Example 173, (1R,2R,3S,4R,5R)—N-(3,4-dichlorophenyl)-3-(2-fluoropyridin-4-yl)-5-((2-hydroxyethyl)amino)-7-oxabicyclo[2.2.1]heptane-2-carboxamide] | 27 µM | 54%

Second part, led by results:

EC50 | Structure (SMILES) | Emax
21 µM | Cc1cc([C@H]2[C@H]3O[C@H](C[C@@H]3F)[C@H]2C(=O)Nc2ccc(Cl)c(Cl)c2)ccn1 [Example 16, (1R,2S,3S,4R,5S)-N-(3,4-dichlorophenyl)-5-fluoro-3-(2-methylpyridin-4-yl)-7-oxabicyclo[2.2.1]heptane-2-carboxamide] | 105%
17 µM | O=C(Nc1ccc(Cl)c(Cl)c1)[C@@H]1[C@@H](c2ccnc(C(F)(F)F)c2)[C@H]2O[C@@H]1C[C@@H]2O (racemic) [Example 145, rac-(1R,2R,3S,4R,5S)—N-(3,4-dichlorophenyl)-5-hydroxy-3-(2-(trifluoromethyl)pyridin-4-yl)-7-oxabicyclo[2.2.1]heptane-2-carboxamide] | 246%
17 µM | O=C(Nc1cnc(Cl)c(Cl)c1)[C@H]1[C@@H]2O[C@@H]([C@H]3C[C@H]32)[C@@H]1c1ccncc1 [Example 136, (1S,2S,4R,5R,6R,7S)—N-(5,6-dichloropyridin-3-yl)-7-(pyridin-4-yl)-8-oxatricyclo[3.2.1.0^2,4]octane-6-carboxamide] | 254%
10 µM | O=C(Nc1cccc(C(F)(F)F)c1)[C@H]1[C@@H]2O[C@@H]([C@H]3C[C@H]32)[C@@H]1c1cncnc1 [Example 130, (1S,2S,4R,5R,6R,7S)-7-(pyrimidin-5-yl)-N-(3-(trifluoromethyl)phenyl)-8-oxatricyclo[3.2.1.0^2,4]octane-6-carboxamide] | 237%
> 50 µM | Cc1cc([C@@H]2[C@@H](C(=O)Nc3cccc(C(F)(F)F)c3)[C@@H]3O[C@H]2C[C@H]3O)ccn1 [Example 86, (1S,2R,3S,4S,6R)-6-hydroxy-3-(2-methylpyridin-4-yl)-N-(3-(trifluoromethyl)phenyl)-7-oxabicyclo[2.2.1]heptane-2-carboxamide] | 38%
6.2 µM | Cc1cc([C@H]2[C@H]3O[C@H]([C@@H]4C[C@@H]43)[C@@H]2C(=O)Nc2ccc(OC(F)(F)F)c(F)c2)ccn1 [Example 71, (1S,2S,4R,5R,6R,7S)—N-(3-fluoro-4-(trifluoromethoxy)phenyl)-7-(2-methylpyridin-4-yl)-8-oxatricyclo[3.2.1.0^2,4]octane-6-carboxamide] | 250%
> 50 µM | Nc1ncc([C@H]2[C@H]3O[C@H](C[C@@H]3O)[C@@H]2C(=O)Nc2ccc(Cl)c(Cl)c2)cn1 [Example 143, (1R,2R,3S,4R,5S)-3-(2-aminopyrimidin-5-yl)-N-(3,4-dichlorophenyl)-5-hydroxy-7-oxabicyclo[2.2.1]heptane-2-carboxamide] | 0%
> 50 µM | O=C(Nc1ccc(Cl)c(Cl)c1)[C@@H]1[C@@H](c2ccncc2)[C@H]2O[C@@H]1C[C@@H]2O [Example 150, (1R,2R,3S,4R,5S)—N-(3,4-dichlorophenyl)-5-hydroxy-3-(pyridin-4-yl)-7-oxabicyclo[2.2.1]heptane-2-carboxamide] | 5%
23 µM | Cc1ccc([C@@H]2[C@@H](C(=O)Nc3ccc(Cl)c(Cl)c3)[C@@H]3O[C@H]2C[C@H]3F)cn1 [Example 116, (1S,2R,3S,4S,6R)—N-(3,4-dichlorophenyl)-6-fluoro-3-(6-methylpyridin-3-yl)-7-oxabicyclo[2.2.1]heptane-2-carboxamide] | 58%
23 µM | Cc1cc([C@H]2[C@H]3O[C@H]([C@@H]4C[C@@H]43)[C@H]2C(=O)Nc2cccc(C(F)(F)F)c2)ccn1 [Example 26, (1S,2S,4R,5R,6S,7S)-7-(2-methylpyridin-4-yl)-N-[3-(trifluoromethyl)phenyl]-8-oxatricyclo[3.2.1.0^2,4]octane-6-carboxamide] | 54%
> 50 µM | O=C(Nc1ccc(Cl)c(Cl)c1)[C@@H]1[C@@H]2O[C@@H]([C@H]3C[C@H]32)[C@@H]1c1cnc(N2CCOCC2)nc1 [Example 40, (1S,2S,4R,5R,6S,7S)—N-(3,4-dichlorophenyl)-7-(2-morpholinopyrimidin-5-yl)-8-oxatricyclo[3.2.1.0^2,4]octane-6-carboxamide] | 37%
> 50 µM | Cc1cc([C@H]2[C@@H]3C[C@@H](O)C(O3)[C@H]2C(=O)Nc2cccc(C(F)(F)F)c2)ccn1 (stereo in doubt) [Example 9, (1R,2S,3S,4S,6R)-6-hydroxy-3-(2-methylpyridin-4-yl)-N-[3-(trifluoromethyl)phenyl]-7-oxabicyclo[2.2.1]heptane-2-carboxamide] | 0%
